These compounds were tested on hypoxia-inducible endogenous VEGF expression (assay: Assay to evaluate effect on hypoxia-inducible endogenous VEGF expression (VEGF ELISA, HeLa cells)). Details: HeLa cells cultured 24-48 hours under hypoxic conditions (1% O2, 5% CO2); VEGF in conditioned media by ELISA; read-out: ELISA EC50 (effective concentration required to lower the amount of VEGF translation by 50%).
Type: cell-based
Procedure: Assay to Evaluate Effect on Hypoxia-Inducible Endogenous VEGF Expression
The ability of the compounds of the invention to modulate hypoxia-inducible endogenous VEGF expression is analyzed as follows. VEGF protein levels are monitored by an ELISA assay (R&D Systems). Briefly, HeLa cells are cultured for 24-48 hours under hypoxic conditions (1% O2, 5% CO2, balanced with nitrogen) in the presence or absence of a compound of the invention. The conditioned media is then assayed by ELISA, and the concentration of VEGF is calculated from the standard ELISA curve of each assay.
A dose-response analysis is performed using the ELISA assay and conditions described above. A series of, e.g., seven different concentrations are analyzed. In parallel, a dose-response cytotoxicity assay is performed using Cell Titer Glo (Promega) under the same conditions as the ELISA to ensure that the inhibition of VEGF expression is not due to the cytotoxicity. Dose-response curves are plotted using percentage inhibition versus concentration of the compound, and EC50 and CC50 values are generated for each compound with the maximal inhibition set as 100% and the minimal inhibition as 0%.
The most preferred compounds of the invention are those with μM values of 3 or less.
Compound CC1CC(C)CN(C(=O)Oc2ccccc2Br)C1 (centres unmarked) [3,5-Dimethyl-piperidine-1-carboxylic acid 2-bromo-phenyl ester] has an EC50 of over 30 µM.
Cc1ccc2cc(OC(=O)N3CC(C)CC(C)C3)ccc2n1 (centres unmarked) [3,5-Dimethyl-piperidine-1-carboxylic acid 2-methyl-quinolin-6-yl ester] was tested, and the EC50 was over 30 µM.
Cc1ccc(OC(=O)N2CCCCC2C)c(Br)c1 (centres unmarked) [2-Methyl-piperidine-1-carboxylic acid 2-bromo-4-methyl-phenyl ester] was tested, and the EC50 was over 30 µM.

Same assay, conditions: Homo sapiens, HeLa, read-out: ELISA EC50 (effective concentration required to lower the amount of VEGF translation by 50%)
Cc1ccc(OC(=O)N2CCc3ccccc32)c(Br)c1 [2,3-Dihydro-indole-1-carboxylic acid 2-bromo-4-methyl-phenyl ester] gave an EC50 of over 30 µM.
In the case of CC(=O)c1c(OC(=O)N2CCCN(C)CC2)ccc2ccccc12 [4-Methyl-[1,4]diazepane-1-carboxylic acid 1-acetyl-naphthalen-2-yl ester], the EC50 is reported as over 30 µM.
Cc1ccc2cc(OC(=O)N3CCN(C)CC3)ccc2n1 [4-Methyl-piperazine-1-carboxylic acid 2-methyl-quinolin-6-yl ester] gave an EC50 of over 30 µM.
Work on NC(=O)C1(N2CCCCC2)CCN(C(=O)Oc2ccc3ccccc3c2Br)CC1 [4′-Carbamoyl-[1,4′]bipiperidinyl-1′-carboxylic acid 1-bromo-naphthalen-2-yl ester] yielded an EC50 of 6.54 µM.
Compound CN(C)C(=O)Oc1ccc2ccccc2c1Br [Dimethyl-carbamic acid 1-bromo-naphthalen-2-yl ester] has an EC50 of 4 µM.
Cc1ccc2cc(OC(=O)N3CCCCC3C)ccc2n1 (centres unmarked) [2-Methyl-piperidine-1-carboxylic acid 2-methyl-quinolin-6-yl ester] was tested, and the EC50 was over 30 µM.
For CN1CCCN(C(=O)Oc2ccccc2Br)CC1 [4-Methyl-[1,4]diazepane-1-carboxylic acid 2-bromo-phenyl ester], the EC50 was over 30 µM.
CC1CCCCN1C(=O)Oc1ccccc1Br (centres unmarked) [2-Methyl-piperidine-1-carboxylic acid 2-bromo-phenyl ester] showed an EC50 of over 30 µM.

Same assay, conditions: Homo sapiens; HeLa cells cultured 24-48 hours under hypoxic conditions (1% O2, 5% CO2); VEGF in conditioned media by ELISA; read-out: ELISA EC50 (effective concentration required to lower the amount of VEGF translation by 50%)
For O=C(Oc1c(Cl)cc(Cl)cc1Cl)N1CCC(Cc2ccccc2)CC1 [4-Benzyl-piperidine-1-carboxylic acid 2,4,6-trichloro-phenyl ester], the EC50 was 3.72 µM.
With O=C(Oc1ccc2ccccc2c1Br)N1CCC(Cc2ccccc2)CC1 [4-Benzyl-piperidine-1-carboxylic acid 1-bromo-naphthalen-2-yl ester] the EC50 was 0.259 µM.
CC1CCCCN1C(=O)Oc1c(Cl)cc(Cl)cc1Cl (centres unmarked) [2-Methyl-piperidine-1-carboxylic acid 2,4,6-trichloro-phenyl ester] was tested, and the EC50 was over 30 µM.
Compound O=C(Oc1ncc2ccccc2c1Cl)N1CCCCC1 [Piperidine-1-carboxylic acid 4-chloro-isoquinolin-3-yl ester] has an EC50 of 2.22 µM.
Compound O=C(Oc1cc(Cl)c(Cl)cc1Cl)N1CCN(c2ccccc2)CC1 [4-Phenyl-piperazine-1-carboxylic acid 2,4,5-trichloro-phenyl ester] has an EC50 of over 30 µM.
For CC(=O)c1c(OC(=O)N2CCCC2)ccc2ccccc12 [Pyrrolidine-1-carboxylic acid 1-acetyl-naphthalen-2-yl ester], the EC50 was over 30 µM.
Work on CC1CC(C)CN(C(=O)Nc2ccc3ccccc3c2)C1 (centres unmarked) [3,5-Dimethyl-piperidine-1-carboxylic acid naphthalen-2-ylamide] yielded an EC50 of over 10 µM.
In the case of Cc1ccc(OC(=O)N2CC(C)CC(C)C2)c(Br)c1 (centres unmarked) [3,5-Dimethyl-piperidine-1-carboxylic acid 2-bromo-4-methyl-phenyl ester], the EC50 is reported as over 30 µM.
For Cc1ccc(OC(=O)N2CCC(C)CC2)c(Br)c1 [4-Methyl-piperidine-1-carboxylic acid 2-bromo-4-methyl-phenyl ester], the EC50 was over 30 µM.
CCC(NC(=O)Oc1ccc2ccccc2c1)(C(F)(F)F)C(F)(F)F [(1,1-Bis-trifluoromethyl-propyl)-carbamic acid naphthalen-2-yl ester] was tested, and the EC50 was over 30 µM.
In the case of O=C(Oc1ccc2cc(Br)ccc2c1Br)N1CCCCC1 [Piperidine-1-carboxylic acid 1,6-dibromo-naphthalen-2-yl ester], the EC50 is reported as over 30 µM.
With O=C(Oc1ccc2ccccc2c1Br)N1CCC(C(O)(c2ccccc2)c2ccccc2)CC1 [4-(Hydroxy-diphenyl-methyl)-piperidine-1-carboxylic acid 1-bromo-naphthalen-2-yl ester] the EC50 was 0.0202 µM.
Cc1ccc2cc(OC(=O)N3CCCCC3)ccc2n1 [Piperidine-1-carboxylic acid 2-methyl-quinolin-6-yl ester] showed an EC50 of over 30 µM.
Cc1ccc(OC(=O)N2CCC(Cc3ccccc3)CC2)c(Br)c1 [4-Benzyl-piperidine-1-carboxylic acid 2-bromo-4-methyl-phenyl ester] gave an EC50 of over 30 µM.
O=C(Oc1c(Cl)cc(Cl)cc1Cl)N1CCCc2ccccc21 [3,4-Dihydro-2H-quinoline-1-carboxylic acid 2,4,6-trichloro-phenyl ester] was tested, and the EC50 was over 30 µM.
For O=C(NCC1CCCCC1)Oc1ccc2ccccc2c1Br [Cyclohexylmethyl-carbamic acid 1-bromo-naphthalen-2-yl ester], the EC50 was over 30 µM.
Work on CC(=O)c1c(OC(=O)N2CCC(C)CC2)ccc2ccccc12 [4-Methyl-piperidine-1-carboxylic acid 1-acetyl-naphthalen-2-yl ester] yielded an EC50 of 1.85 µM.
CC1CCCC(C)N1C(=O)Oc1cc2ccccc2cn1 (centres unmarked) [2,6-Dimethyl-piperidine-1-carboxylic acid isoquinolin-3-yl ester] showed an EC50 of over 30 µM.
In the case of O=C(Oc1c(Cl)cc(Cl)cc1Cl)N1CCCC1 [Pyrrolidine-1-carboxylic acid 2,4,6-trichloro-phenyl ester], the EC50 is reported as 23 µM.
Compound O=C(Oc1cc(Cl)c(Cl)cc1Cl)N1CCc2ccccc21 [2,3-Dihydro-indole-1-carboxylic acid 2,4,5-trichloro-phenyl ester] has an EC50 of over 30 µM.
COc1ccc2ccc(OC(=O)N3CCN(c4ccccc4)CC3)c(Br)c2c1 [4-Phenyl-piperazine-1-carboxylic acid 1-bromo-7-methoxy-naphthalen-2-yl ester] was tested, and the EC50 was over 10 µM.
O=C(Oc1cc2ccccc2cn1)N1CCC(Cc2ccccc2)CC1 [4-Benzyl-piperidine-1-carboxylic acid isoquinolin-3-yl ester] was tested, and the EC50 was over 30 µM.
O=C(Nc1ccc2ccccc2c1Br)N1CCN(c2ccccc2)CC1 [4-Phenyl-piperazine-1-carboxylic acid (1-bromo-naphthalen-2-yl)-amide] was tested, and the EC50 was over 10 µM.
With O=C(Oc1cc2ccccc2cn1)N1CCCC1 [Pyrrolidine-1-carboxylic acid isoquinolin-3-yl ester] the EC50 was over 30 µM.
CC1CC(C)CN(C(=O)Oc2cc(Cl)c(Cl)cc2Cl)C1 (centres unmarked) [3,5-Dimethyl-piperidine-1-carboxylic acid 2,4,5-trichloro-phenyl ester] showed an EC50 of 11.2 µM.
CC1CC(C)CN(C(=O)Oc2ncc3ccccc3c2Cl)C1 (centres unmarked) [3,5-Dimethyl-piperidine-1-carboxylic acid 4-chloro-isoquinolin-3-yl ester] showed an EC50 of over 10 µM.
Compound O=C(Oc1ccc2cc(Br)ccc2c1)N1CCCCC1 [Piperidine-1-carboxylic acid 6-bromo-naphthalen-2-yl ester] has an EC50 of over 10 µM.
CC1CCN(C(=O)Oc2ccc3ccccc3c2Br)CC1 [4-Methyl-piperidine-1-carboxylic acid 1-bromo-naphthalen-2-yl ester] showed an EC50 of 0.469 µM.
O=C(Nc1ccc2ccccc2c1Br)N1CCCCC1 [Piperidine-1-carboxylic acid (1-bromo-naphthalen-2-yl)-amide] was tested, and the EC50 was over 10 µM.
In the case of O=C(Oc1c(Cl)cc(Cl)cc1Cl)N1CCCCC1 [Piperidine-1-carboxylic acid 2,4,6-trichloro-phenyl ester], the EC50 is reported as over 30 µM.
In the case of O=C(Oc1ccc2ccccc2c1Br)N1CCC2(CC1)OCCO2 [1,4-Dioxa-8-aza-spiro[4.5]decane-8-carboxylic acid 1-bromo-naphthalen-2-yl ester], the EC50 is reported as 1.51 µM.
With O=C(Oc1cc(Cl)c(Cl)cc1Cl)N1CCC(Cc2ccccc2)CC1 [4-Benzyl-piperidine-1-carboxylic acid 2,4,5-trichloro-phenyl ester] the EC50 was 7.09 µM.
Work on O=C(Nc1ccc2ccccc2c1Br)N1CCC(Cc2ccccc2)CC1 [4-Benzyl-piperidine-1-carboxylic acid (1-bromo-naphthalen-2-yl)-amide] yielded an EC50 of over 10 µM.
For O=C(Oc1c(Cl)cc(Cl)cc1Cl)N1CCc2ccccc21 [2,3-Dihydro-indole-1-carboxylic acid 2,4,6-trichloro-phenyl ester], the EC50 was over 30 µM.
In the case of CC1CCN(C(=O)Oc2cc3ccccc3cn2)CC1 [4-Methyl-piperidine-1-carboxylic acid isoquinolin-3-yl ester], the EC50 is reported as over 30 µM.
O=C(NC1CCCCC1)Oc1ccccc1Br [Cyclohexyl-carbamic acid 2-bromo-phenyl ester] showed an EC50 of over 30 µM.
For CC1CC(C)CN(C(=O)Oc2ccc3ccccc3c2Br)C1 (centres unmarked) [3,5-Dimethyl-piperidine-1-carboxylic acid 1-bromo-naphthalen-2-yl ester], the EC50 was 0.129 µM.
Work on O=C(Oc1c(Cl)cc(Cl)cc1Cl)N1CCN(c2ccccc2)CC1 [4-Phenyl-piperazine-1-carboxylic acid 2,4,6-trichloro-phenyl ester] yielded an EC50 of 5.78 µM.
CS(=O)(=O)Nc1c(OC(=O)N2CCN(c3ccccc3)CC2)ccc2ccccc12 [4-Phenyl-piperazine-1-carboxylic acid 1-methanesulfonylamino-naphthalen-2-yl ester] showed an EC50 of over 5 µM.
